For one data set, the target named is T1, HAT1 (Homo sapiens, UniProt O14929).
T1 sequence (O14929 1-419): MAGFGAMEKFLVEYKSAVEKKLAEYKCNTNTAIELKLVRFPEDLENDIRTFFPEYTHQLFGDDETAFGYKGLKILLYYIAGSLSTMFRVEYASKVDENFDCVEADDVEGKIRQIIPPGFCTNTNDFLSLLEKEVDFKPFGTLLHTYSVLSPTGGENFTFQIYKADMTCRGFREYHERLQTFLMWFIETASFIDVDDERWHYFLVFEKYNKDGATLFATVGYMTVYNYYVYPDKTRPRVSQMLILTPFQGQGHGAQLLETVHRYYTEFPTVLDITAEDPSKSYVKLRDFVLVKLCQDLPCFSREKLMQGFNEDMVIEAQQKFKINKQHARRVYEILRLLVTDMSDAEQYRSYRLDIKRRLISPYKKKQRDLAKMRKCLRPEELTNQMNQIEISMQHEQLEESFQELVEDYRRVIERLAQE
Description: FDA library screening (analysis service PLEXERA) and binding strength, HAT1. An excerpt: (§1) Medicines containing each as an active ingredient (provided that each medicine has an indication other than that for malignant tumors) have already been commercially available.
(§2) Meanwhile, medicines containing each as an active ingredient (provided that each medicine has an indication other than that for malignant tumors) have already been commercially available.

Another data set has as its target T2, KAT8 (Homo sapiens, UniProt Q9H7Z6).
T2 sequence (Q9H7Z6 1-458): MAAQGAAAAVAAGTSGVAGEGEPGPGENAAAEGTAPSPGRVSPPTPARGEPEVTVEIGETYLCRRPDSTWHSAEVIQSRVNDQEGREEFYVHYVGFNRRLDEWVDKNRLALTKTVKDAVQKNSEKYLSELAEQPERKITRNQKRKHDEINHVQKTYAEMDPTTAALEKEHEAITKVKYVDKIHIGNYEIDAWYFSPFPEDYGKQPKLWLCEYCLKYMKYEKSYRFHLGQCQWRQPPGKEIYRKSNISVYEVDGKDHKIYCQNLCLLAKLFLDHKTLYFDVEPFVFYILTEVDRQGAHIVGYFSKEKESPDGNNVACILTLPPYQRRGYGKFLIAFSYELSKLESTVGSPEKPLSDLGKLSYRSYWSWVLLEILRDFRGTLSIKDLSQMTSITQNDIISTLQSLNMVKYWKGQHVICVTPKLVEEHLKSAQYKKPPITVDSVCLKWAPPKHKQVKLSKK
Description: FDA library screening (analysis service PLEXERA) and binding strength, KAT8.
Description: as §1, §2

The conditions of data set [1]: cited from earlier work.
The mark [2] stands for this setting: interview form of commercially available medicine.
Where [3] appears, read: interview form, given as percent (external preparation / solution concentration).

Counter-ions that a name gives are not always drawn. Like-named read-outs stand apart in the source and are kept apart here.

Consider `CC(C)NCC(O)COc1ccc(CCOCC2CC2)cc1` (stereo not drawn) [betaxolol hydrochloride], for which the “inhibition of function of HAT1” value at HAT1 was “inhibited function of both HAT1 and KAT8”. For the same compound, the “inhibition of function of KAT8” value at KAT8 was “inhibited function of both HAT1 and KAT8”. The “maximum effective blood concentration (Cmax)” value in data set [1] (setting [2]) is 0.0418 µg/mL.

As to `C[N+]1(C)CCC(OC(=O)C(O)(c2ccccc2)C2CCCC2)C1` (stereo not drawn) [glycopyrrolate], the “inhibition of function of KAT8” value at KAT8 was “inhibited only KAT8”.

With `CCc1cccc(CC)c1NC(=O)CN(CC(=O)O)CC(=O)O` [etifenin], the “inhibition of function of HAT1” value on HAT1 is listed as “inhibited only HAT1”. For the same compound, the “maximum effective blood concentration (Cmax)” value in data set [1] (setting [2]) is 5.0 µg/mL.

In the case of clofilium tosylate, the “inhibition of function of HAT1” value on HAT1 is listed as “inhibited only HAT1”. Further, in data set [1] (setting [2]), the “maximum effective blood concentration (Cmax)” value was 0.11 µg/mL.

As for `C[C@@H](O)[C@H]1C(=O)N2C(C(=O)O)=C(SCCN=CN)C[C@H]12` [imipenem], the “maximum effective blood concentration (Cmax)” value in data set [1] (setting [2]) was 82.8 µg/mL.

On to `COC(=O)CCc1ccc(OCC(O)CNC(C)C)cc1` (stereo not drawn) [esmolol hydrochloride], for which, on HAT1, the “inhibition of function of HAT1” value was “inhibited only HAT1”. Further, in data set [1] (setting [2]), the “maximum effective blood concentration (Cmax)” value is 2.7 µg/mL.

For the compound `Cc1cc(=O)n(-c2ccccc2)n1C` [antipyrine], the “inhibition of function of HAT1” value at HAT1 is “inhibited only HAT1”. Further, in data set [1] (setting [2]), the “maximum effective blood concentration (Cmax)” value was 50 µg/mL.

As to `CO[C@]12C[C@@H](COC(=O)c3cncc(Br)c3)CN(C)[C@@H]1Cc1cn(C)c3cccc2c13` [nicergoline], the “inhibition of function of HAT1” value at HAT1 is recorded as “inhibited only HAT1”. For the same compound, in data set [1] (setting [2]), the “maximum effective blood concentration (Cmax)” value was 96 ng eq./mL.

Turning to `CCN1CCN(C(=O)N[C@@H](C(=O)N[C@@H]2C(=O)N3C(C(=O)O)=C(CSc4nnnn4C)CS[C@H]23)c2ccc(O)cc2)C(=O)C1=O` [cefoperazone dihydrate], in data set [1] (setting [2]), the “maximum effective blood concentration (Cmax)” value was 1,000 ng/ml.

Turning to `CC(C(=O)O)c1ccc(C(=O)c2cccs2)cc1` (stereo not drawn) [suprofen], at HAT1, the “inhibition of function of HAT1” value was “inhibited only HAT1”. For the same compound, the “maximum effective blood concentration (Cmax)” value in data set [1] (setting [3]) was 1%.

In the case of `CC(C)NCC(O)COc1ccc(COCCOC(C)C)cc1` (stereo not drawn) [bisoprolol fumarate], the “inhibition of function of HAT1” value on HAT1 was “inhibited function of both HAT1 and KAT8”. For the same compound, the “inhibition of function of KAT8” value at KAT8 was “inhibited function of both HAT1 and KAT8”. The “maximum effective blood concentration (Cmax)” value in data set [1] (setting [2]) was 0.1 µg/mL.

As for `CCCN1C[C@H](CSC)C[C@@H]2c3cccc4[nH]cc(c34)C[C@H]21` [pergolide mesylate], the “inhibition of function of KAT8” value at KAT8 was “inhibited only KAT8”. In addition, the “maximum effective blood concentration (Cmax)” value in data set [1] (setting [2]) is 0.026 µg/mL.

As to `CC(N/C(=N\C#N)Nc1ccncc1)C(C)(C)C` (stereo not drawn) [pinacidil], at HAT1, the “inhibition of function of HAT1” value is reported as “inhibited only HAT1”. In addition, in data set [1] (setting [2]), the “maximum effective blood concentration (Cmax)” value was 2.5 µg/mL.

On to `NCC[C@H](O)C(=O)N[C@@H]1C[C@H](N)[C@@H](O[C@H]2O[C@H](CN)[C@@H](O)[C@H](O)[C@H]2O)[C@H](O)[C@H]1O[C@H]1O[C@H](CO)[C@@H](O)[C@H](N)[C@H]1O` [amikacin hydrate], for which, on HAT1, the “inhibition of function of HAT1” value is “inhibited function of both HAT1 and KAT8”. Further, the “inhibition of function of KAT8” value at KAT8 was “inhibited function of both HAT1 and KAT8”. Moreover, the “maximum effective blood concentration (Cmax)” value in data set [1] (setting [2]) was 25 µg/mL.

`C=CC1=C(C(=O)O)N2C(=O)[C@@H](NC(=O)/C(=N\OCC(=O)O)c3csc(N)n3)[C@H]2SC1` [cefixime]: in data set [1] (setting [2]), the “maximum effective blood concentration (Cmax)” value is 3.97 µg/mL.

In the case of `CCC(=O)O[C@@H](O[P@](=O)(CCCCc1ccccc1)CC(=O)N1C[C@H](C2CCCCC2)C[C@H]1C(=O)O)C(C)C` [fosinopril], in data set [1] (setting [2]), the “maximum effective blood concentration (Cmax)” value was 4 µg/mL.

Turning to `CN(CCCCCCCCCCN(C)C(=O)Oc1cccc([N+](C)(C)C)c1)C(=O)Oc1cccc([N+](C)(C)C)c1` [demecarium bromide], the “inhibition of function of HAT1” value on HAT1 is “inhibited function of both HAT1 and KAT8”. Besides, the “inhibition of function of KAT8” value at KAT8 is “inhibited function of both HAT1 and KAT8”.

In the case of `C=C1[C@@H]2CC[C@H]3[C@]4(C)C[C@H](O[C@@H]5O[C@H](CO)[C@@H](OS(=O)(=O)O)[C@H](OS(=O)(=O)O)[C@H]5OC(=O)CC(C)C)C[C@@H](C(=O)O)[C@H]4CC[C@]3(C2)[C@@H]1O` [atractyloside potassium salt], the “inhibition of function of HAT1” value on HAT1 is “inhibited only HAT1”. Further, the “maximum effective blood concentration (Cmax)” value in data set [1] (setting [2]) was 60 µg/mL.

As for `CCN(CC)C(=O)Nc1ccc(OCC(O)CNC(C)(C)C)c(C(C)=O)c1` (stereo not drawn) [celiprolol hydrochloride], the “inhibition of function of HAT1” value at HAT1 is “inhibited function of both HAT1 and KAT8”. Besides, at KAT8, the “inhibition of function of KAT8” value was “inhibited function of both HAT1 and KAT8”. Besides, in data set [1] (setting [2]), the “maximum effective blood concentration (Cmax)” value was 0.3 µg/mL.

Turning to `CCCCNc1cc(C(=O)O)cc(S(N)(=O)=O)c1Oc1ccccc1` [bumetanide], the “inhibition of function of KAT8” value at KAT8 was “inhibited only KAT8”. Further, the “maximum effective blood concentration (Cmax)” value in data set [1] (setting [2]) was 0.882 µg/mL.

Turning to `CCc1oc2ccccc2c1C(=O)c1cc(Br)c(O)c(Br)c1` [benzbromarone], the “inhibition of function of HAT1” value at HAT1 is on record as “inhibited only HAT1”. Moreover, the “maximum effective blood concentration (Cmax)” value in data set [1] (setting [2]) is 3.1 µg/mL.

Take `COCCc1ccc(OCC(O)CNC(C)C)cc1.COCCc1ccc(OCC(O)CNC(C)C)cc1.O=C(O)C(O)C(O)C(=O)O` (racemic) [metoprolol-(+,−)(+)-tartrate salt]: the “inhibition of function of KAT8” value at KAT8 was “inhibited only KAT8”. Further, in data set [1] (setting [2]), the “maximum effective blood concentration (Cmax)” value was 0.077 µg/mL.

For `C=CCc1ccccc1OCC(O)CNC(C)C` (stereo not drawn) [alprenolol hydrochloride], on HAT1, the “inhibition of function of HAT1” value was “inhibited function of both HAT1 and KAT8”. In addition, on KAT8, the “inhibition of function of KAT8” value is “inhibited function of both HAT1 and KAT8”. Moreover, the “maximum effective blood concentration (Cmax)” value in data set [1] (setting [2]) is 0.12 µg/mL.

Regarding `CN(C(=O)CN(CCO)CC(=O)N(C)C(C)(C)Cc1ccccc1)C(C)(C)Cc1ccccc1` [oxethazaine], the “inhibition of function of HAT1” value at HAT1 was “inhibited only HAT1”. In addition, the “maximum effective blood concentration (Cmax)” value in data set [1] (setting [2]) was 1 µg/mL.

Take `O=C([O-])c1ccccc1-c1c2cc(Br)c(=O)cc-2oc2[c]([Hg+])c([O-])c(Br)cc12.[Na+].[Na+].[OH-]` [merbromin]: the “inhibition of function of KAT8” value on KAT8 is given as “inhibited only KAT8”. The “maximum effective blood concentration (Cmax)” value in data set [1] (setting [3]) is on record as 2%.

For the compound `CN[C@H](CC(C)C)C(=O)N[C@H]1C(=O)N[C@@H](CC(N)=O)C(=O)N[C@H]2C(=O)N[C@H]3C(=O)N[C@H](C(=O)N[C@H](C(=O)O)c4cc(O)cc(O)c4-c4cc3ccc4O)[C@H](O)c3ccc(c(Cl)c3)Oc3cc2cc(c3O[C@@H]2O[C@H](CO)[C@@H](O)[C@H](O)[C@H]2O[C@H]2C[C@](C)(N)[C@H](O)[C@H](C)O2)Oc2ccc(cc2Cl)[C@H]1O` [vancomycin hydrochloride], the “inhibition of function of HAT1” value on HAT1 was “inhibited function of both HAT1 and KAT8”. The “inhibition of function of KAT8” value on KAT8 is “inhibited function of both HAT1 and KAT8”. Also, the “maximum effective blood concentration (Cmax)” value in data set [1] (setting [2]) was 30 µg/mL.

With `C=CCOc1ccccc1OCC(O)CNC(C)C` (stereo not drawn) [oxprenolol hydrochloride], the “inhibition of function of HAT1” value at HAT1 is “inhibited function of both HAT1 and KAT8”. Further, the “inhibition of function of KAT8” value at KAT8 is “inhibited function of both HAT1 and KAT8”. Further, the “maximum effective blood concentration” value in data set [1] (commercially available medicine) is 30.18 µg/µL. Also, in data set [1] (setting [2]), the “maximum effective blood concentration (Cmax)” value was 0.3 µg/mL.
